These results are taken from US8686024B2, “Indoline derivatives” (priority 2009, dated 2014).

Entries after “also recorded” stand apart in the source; their conditions may differ. Read-outs that look alike come from different tables or passages of the source.

Data set [1] has as its target T1, butyrylcholine esterase (BuChE) (Mus musculus, UniProt Q03311).
T1 construct: brain homogenate and serum of mouse were used as choline esterase enzyme sources; from tissue; host or cells: mouse serum
In words: In vitro assay for choline esterase inhibition (Ellman method), butyrylthiocholine substrate, mouse serum. Format: biochemical. The note with it: for Ratio AChE/BuChE: selectivity for BuChE inhibition: IC50 (AchE)/IC50 (BuChE). Put shortly:
(§1)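 Enzyme sources were mouse brain homogenate for AChE (acetylthiocholine substrate) and mouse serum for BuChE (butyrylthiocholine substrate). Compounds were diluted in DMSO and incubated with substrate and DTNB, and the thiocholine–DTNB product was read at 415 nm (Ellman method). Selectivity was taken as IC50(AChE)/IC50(BuChE).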
A general note: Ellman's reagent forms a yellow product with free thiols.

Data set [2] deals with T2, acetylcholine esterase (AChE) (Mus musculus, UniProt P21836).
T2 construct: brain homogenate and serum of mouse were used as choline esterase enzyme sources; from tissue; host or cells: mouse brain homogenate
T2 sequence (P21836 32-614): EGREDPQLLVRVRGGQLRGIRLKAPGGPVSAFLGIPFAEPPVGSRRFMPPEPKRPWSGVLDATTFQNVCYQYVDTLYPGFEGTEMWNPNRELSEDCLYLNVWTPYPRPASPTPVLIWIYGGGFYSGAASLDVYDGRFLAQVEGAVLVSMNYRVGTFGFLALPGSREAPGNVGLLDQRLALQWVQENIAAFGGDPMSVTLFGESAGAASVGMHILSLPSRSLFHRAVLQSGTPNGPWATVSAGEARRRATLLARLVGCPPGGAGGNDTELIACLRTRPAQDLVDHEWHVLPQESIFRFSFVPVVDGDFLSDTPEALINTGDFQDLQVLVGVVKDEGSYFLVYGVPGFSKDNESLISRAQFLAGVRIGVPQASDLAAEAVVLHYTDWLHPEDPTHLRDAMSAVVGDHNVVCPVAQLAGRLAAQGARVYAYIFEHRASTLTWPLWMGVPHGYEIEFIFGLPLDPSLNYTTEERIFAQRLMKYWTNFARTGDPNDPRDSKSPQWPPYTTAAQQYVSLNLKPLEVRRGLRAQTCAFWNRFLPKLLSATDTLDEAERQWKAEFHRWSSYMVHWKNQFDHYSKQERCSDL
Put plainly: In vitro assay for choline esterase inhibition (Ellman method), acetylthiocholine substrate, mouse brain homogenate. In kind it is biochemical. Put shortly: as §1

[3] abbreviates: mouse serum, butyrylthiocholine, absorbance at 415 nm, read-out: BuChE inhibitory activity IC50.
Where [4] appears, read: mouse brain homogenate, acetylthiocholine, absorbance at 415 nm, read-out: AChE inhibitory activity IC50.

T1 sequence (Q03311 30-603): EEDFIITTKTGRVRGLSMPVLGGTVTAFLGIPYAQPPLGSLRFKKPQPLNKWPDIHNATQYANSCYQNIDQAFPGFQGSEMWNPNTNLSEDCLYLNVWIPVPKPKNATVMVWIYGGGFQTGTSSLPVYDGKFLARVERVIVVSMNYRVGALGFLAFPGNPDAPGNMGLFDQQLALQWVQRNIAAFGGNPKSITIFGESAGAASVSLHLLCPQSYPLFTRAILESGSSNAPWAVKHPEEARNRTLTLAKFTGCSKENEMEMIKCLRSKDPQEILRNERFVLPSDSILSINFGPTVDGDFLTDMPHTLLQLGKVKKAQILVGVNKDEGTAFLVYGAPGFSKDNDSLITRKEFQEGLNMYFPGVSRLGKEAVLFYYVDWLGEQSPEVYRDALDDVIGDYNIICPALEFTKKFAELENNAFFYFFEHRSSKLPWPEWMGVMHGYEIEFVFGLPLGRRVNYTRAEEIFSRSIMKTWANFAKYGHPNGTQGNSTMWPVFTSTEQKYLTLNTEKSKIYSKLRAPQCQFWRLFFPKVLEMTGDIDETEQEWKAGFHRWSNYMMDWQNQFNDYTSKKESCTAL

As usually defined, the melting point is the temperature of the solid-liquid transition. Compound `COc1ccc(NC(=O)Oc2ccc3c(c2)CCN3)cc1OC` had a melting point of 140 to 144 °C. Same read-out and setting: the result for `O=C(Nc1ccc([N+](=O)[O-])cc1)Oc1ccc2c(c1)CCN2Cc1ccccc1` reads 225 to 229 °C; that for `CC(C)c1ccc(NC(=O)Oc2ccc3c(c2)CCN3)cc1`, 166 to 170 °C; that for `COc1ccc(NC(=O)Oc2ccc3c(c2)CCN3)cc1`, 220 to 224 °C. As to `COc1cc(CN2CCc3cc(OC(=O)Nc4ccc(C(C)C)cc4)ccc32)ccc1N(C)C`, the melting point lay within 152 to 153 °C. `O=C(Nc1ccncc1)Oc1ccc2c(c1)CCN2Cc1ccccc1` registered a melting point of 132 to 136 °C. In turn, `CC(C)c1ccc(NC(=O)Oc2ccc3c(c2)CCN3Cc2cccc3ncccc23)cc1` came in with a melting point of 195 to 199 °C. Still for that read-out and setting: under `COC(=O)c1ccc(CN2CCc3cc(OC(=O)Nc4ccc(C(C)C)cc4)ccc32)cc1` stands 149 to 153 °C; under `CC(C)c1ccc(NC(=O)Oc2ccc3c(c2)CCN3Cc2ccc(O)c(Cl)c2)cc1`, 170 to 174 °C; under `CCCN(CCC)C(=O)C1Cc2cc(OC(=O)Nc3ccc(C(C)C)cc3)ccc2N1Cc1ccccc1` (stereo not shown), 62 to 66 °C. The same measure, in the same setting: the result for `O=C(Nc1ccc(-c2ccccc2)cc1)Oc1ccc2c(c1)CCN2Cc1ccccc1` reads 175 to 178 °C; that for `CC(C)c1ccc(NC(=O)Oc2ccc3c(c2)CCN3Cc2ccc3ccccc3n2)cc1`, 150 to 152 °C. On to `CC(C)c1ccc(NC(=O)Oc2ccc3c(c2)CCN3Cc2ccc3ccccc3c2)cc1`, for which the melting point lay within 136 to 140 °C.

`O=C(Nc1ccc(C2CCCCC2)cc1)Oc1ccc2c(c1)CCN2Cc1ccccc1`: the melting point is 171 to 174 °C. `CC(C)c1ccc(NC(=O)Oc2ccc3c(c2)CCN3Cc2ccc3cc[nH]c3c2)cc1` had a melting point of 194 to 196 °C.

On to `CC(C)c1ccc(NC(=O)Oc2ccc3c(c2)CCN3Cc2ccco2)cc1`, for which the melting point lay in the range of 168 to 171 °C. In turn, `CNC(=O)Oc1ccc2c(c1)CCN2` had a melting point of 109 to 112 °C. As to `O=C(Nc1ccccc1)Oc1ccc2c(c1)CCN2Cc1ccccc1`, the melting point fell in the range of 105 to 112 °C. Same read-out and setting: the result for `O=C(NCC1CCCCC1)Oc1ccc2c(c1)CCN2` reads 129 to 133 °C.

Compound `CC(C)c1ccc(NC(=O)Oc2ccc3c(c2)CCN3Cc2cc(N(C)C)c3ccccc3c2)cc1` returned a melting point of 75 to 80 °C.

In the case of `O=C(Nc1ccc2ccccc2c1)Oc1ccc2c(c1)CCN2Cc1ccccc1`, the melting point was in the range of 161 to 167 °C. A word on the IC50: it is the concentration needed to halve the response being measured. Regarding `CN(CC1CCOCC1)C(=O)Oc1ccc2c(c1)C(C)(C)CN2Cc1ccccc1` [Example 217, O-(1-benzyl-3,3-dimethylindolin-5-yl)-N-methyl-N-(4-tetrahydropyranylmethyl)carbamate], in data set [1], the IC50 worked out at 0.36 nM and the “Ratio AChE/BuChE” value stood at 260000. For the same compound, in data set [1] (summary of Tables 1-3), the “butyrylcholinesterase inhibitory activity, in words” value was “highest butyrylcholinesterase inhibitory activity” and the “selectivity to butyrylcholinesterase (BuChE versus AChE inhibitory activity), in words” value is listed as “much higher; also recorded: highest selectivity to butyrylcholinesterase”. In data set [2], this compound gave an IC50 of 93000 nM. `O=C(NCCSCc1ccco1)Oc1ccc2c(c1)CCN2Cc1ccccc1` [Example 54, 1-benzylindolin-5-yl 2-(furfurylthio)ethylcarbamate]: in data set [1], the IC50 is 15 nM and the “Ratio AChE/BuChE” value is listed as over 6700. Also, in data set [1] (summary of Tables 1-3), the “selectivity to butyrylcholinesterase (BuChE versus AChE inhibitory activity), in words” value is “much higher”. The IC50 in data set [2] was over 100000 nM. `O=C(Nc1ccc(Oc2ccccc2)cc1)Oc1ccc2c(c1)CCN2Cc1ccccc1` showed a melting point of 155 to 160 °C. Turning to `CC(C)CNC(=O)Oc1ccc2c(c1)CCN2Cc1ccccc1` [Example 35, 1-benzylindolin-5-yl 2-methylpropylcarbamate], the figures for the IC50 in data set [1] (setting [3]) and in data set [2] (setting [4]) were 8 nM and 46000 nM, respectively. Besides, the “Ratio AChE/BuChE” value in data set [1] came out at 5800. The “selectivity to butyrylcholinesterase (BuChE versus AChE inhibitory activity), in words” value in data set [1] (summary of Tables 1-3) is given as “much higher”.

On to `CN(C)c1ccc(NC(=O)Oc2ccc3c(c2)CCN3Cc2ccccc2)cc1` [Example 133, 1-benzylindolin-5-yl 4-dimethylaminophenylcarbamate], for which, in data set [1], 39 nM corresponded to half-maximal inhibition (IC50) and the “Ratio AChE/BuChE” value is listed as over 2600. The “selectivity to butyrylcholinesterase (BuChE versus AChE inhibitory activity), in words” value in data set [1] (summary of Tables 1-3) is reported as “much higher”. This compound also returned an IC50 in data set [2] of over 100000 nM. For the compound `O=C(NC1CCN(Cc2ccccc2)CC1)Oc1ccc2c(c1)CCN2Cc1ccccc1` [Example 138, 1-benzylindolin-5-yl 1-benzylpiperidin-4-ylcarbamate], the IC50 in data set [1] is 900 nM; in data set [2] it was over 100000 nM. For the same compound, the “Ratio AChE/BuChE” value in data set [1] was over 110.

Consider `Cc1ccccc1CCNC(=O)Oc1ccc2c(c1)CCN2Cc1ccccc1` [Example 115, 1-benzylindolin-5-yl 2-methylphenethylcarbamate], for which the IC50 in data set [1] (setting [3]) was 10 nM; in data set [2] (setting [4]), 12000 nM. For the same compound, the “Ratio AChE/BuChE” value in data set [1] worked out at 1200. In addition, in data set [1] (summary of Tables 1-3), the “selectivity to butyrylcholinesterase (BuChE versus AChE inhibitory activity), in words” value is on record as “much higher”.

Regarding `COc1ccc(NC(=O)Oc2ccc3c(c2)CCN3Cc2ccccc2)cc1` [Example 9, 1-benzylindolin-5-yl 4-methoxyphenylcarbamate], the IC50 in data set [1] is 98 nM; in data set [2], over 100000 nM. Further, in data set [1], the “Ratio AChE/BuChE” value is on record as over 1000. Also, in data set [1] (summary of Tables 1-3), the “selectivity to butyrylcholinesterase (BuChE versus AChE inhibitory activity), in words” value is “much higher”. On to `COC1C=CC(CNC(=O)Oc2ccc3c(c2)CCN3Cc2ccccc2)(OC)O1` (stereo not shown) [Example 122, 1-benzylindolin-5-yl (2,5-dihydro-2,5-dimethoxyfuran-2-yl)methylcarbamate], for which, in data set [1], it took 480 nM to reach half-maximal inhibition (IC50) and the “Ratio AChE/BuChE” value was over 210. For the same compound, the IC50 in data set [2] is over 100000 nM. Regarding `CC(C)c1ccc(NC(=O)Oc2ccc3c(c2)CCN3CC2CCCCC2)cc1` [Example 75, 1-(cyclohexylmethyl)indolin-5-yl 4-isopropylphenylcarbamate], the 50% inhibitory concentration (IC50) was 770 nM in data set [1] and over 100000 nM in data set [2]. For the same compound, the “Ratio AChE/BuChE” value in data set [1] is over 130.

Take `CN(CC1CCOCC1)C(=O)Oc1ccc2c(c1)C(C)(C)CN2Cc1cccnc1` [Example 219, N-methyl-O-[1-(3-pyridylmethyl)-3,3-dimethylindolin-5-yl]-N-(4-tetrahydropyranylmethyl)carbamate]: the IC50 in data set [1] worked out at 1.2 nM; in data set [2], 20000 nM. Further, the “Ratio AChE/BuChE” value in data set [1] amounted to 17000. For the same compound, the “selectivity to butyrylcholinesterase (BuChE versus AChE inhibitory activity), in words” value in data set [1] (summary of Tables 1-3) is “much higher”. As to `CC(=O)NCCC1CN(Cc2ccccc2)c2ccc(OC(=O)Nc3ccc(C(C)C)cc3)cc21` (stereo not shown) [Example 160, 3-(2-acetamidethyl)-1-benzylindolin-5-yl-4-isopropylphenylcarbamate], in data set [1], the IC50 was 550 nM and the “Ratio AChE/BuChE” value is listed as over 180. The IC50 in data set [2] was over 100000 nM. In the case of `Cc1ccc(CNC(=O)Oc2ccc3c(c2)CCN3Cc2ccccc2)cc1` [Example 99, 1-benzylindolin-5-yl-4-methylbenzylcarbamate], the values for the IC50 in data set [1] (setting [3]) and in data set [2] (setting [4]) were 21 nM and 14000 nM, respectively. The “Ratio AChE/BuChE” value in data set [1] was 670. The “selectivity to butyrylcholinesterase (BuChE versus AChE inhibitory activity), in words” value in data set [1] (summary of Tables 1-3) is “much higher”.
